Counter-ions that a name gives are not always drawn. Blank lines part the entries; values can stand above or below the compound they belong to. Active and inactive are the calls of the source. The rule behind the calls is not given here.
Experiments:
HL-60 = assay: Cytotoxicity against human HL60 cells assessed as inhibition of cell proliferation after 48 hrs by MTT assay; format: functional, cell-based; details: HL-60, 48 h
K562 = assay: Cytotoxicity against human K562 cells assessed as inhibition of cell proliferation after 48 hrs by MTT assay; format: functional, cell-based; details: K562, 48 h
HEK293 [1] = assay: Cytotoxicity against human HEK293 cells assessed as inhibition of cell proliferation after 48 hrs by MTT assay; format: cell-based; details: HEK293, 48 h
[2] = Solubility in water by spectrophotometry; format: physicochemical
MOLT-4 [3] = assay: Induction of apoptosis in human MOLT-4 cells assessed as caspase 3 activation at 2 to 4 uM incubated for 24 hrs by Western blot analysis; format: functional, cell-based; details: dose microM 2-4, time 24.0 hrs
Jurkat [4] = assay: Induction of apoptosis in human Jurkat cells assessed as decrease in Bcl-2 protein expression at 2 to 4 uM after 24 hrs by Western blot analysis; format: functional, cell-based; details: dose microM 2-4, time 24.0 hrs
HEK293 [5] = assay: Induction of ROS generation in HEK293 cells at 1 uM incubated for 12 hrs by flow cytometric analysis relative to control; format: cell-based; details: human, hek293, 12 h
Jurkat [6] = assay: Induction of ROS generation in human Jurkat cells at 2 uM incubated for 12 hrs by flow cytometric analysis relative to control; format: functional
Jurkat [7] = assay: Induction of apoptosis in human Jurkat cells assessed as increase in cleaved caspase-3 levels at 4 uM after 24 hrs by Alexafluor-488 goat anti-rabbitIgG staining based flow cytometric analysis relative to control; format: functional
Jurkat [8] = assay: Induction of apoptosis in human Jurkat cells assessed as caspase 3 activation at 2 to 4 uM incubated for 24 hrs by Western blot analysis; format: functional, cell-based; details: dose microM 2-4, time 24.0 hrs
MOLT-4 [9] = assay: Induction of apoptosis in human MOLT-4 cells assessed as total apoptotic cells at 4 uM measured after 24 hrs by Annexin V-APC/7-AAD staining based flow cytometric analysis relative to control; format: functional
MOLT-4 [10] = assay: Induction of apoptosis in human MOLT-4 cells assessed as Notch1 degradation at 2 to 4 uM after 24 hrs by Western blot analysis; format: functional, cell-based; details: dose microM 2-4, time 24.0 hrs
MOLT-4 [11] = assay: Induction of ROS generation in human MOLT-4 cells at 1 uM incubated for 12 hrs by flow cytometric analysis relative to control; format: functional
Jurkat [12] = assay: Induction of ROS generation in human Jurkat cells at 1 uM incubated for 12 hrs by flow cytometric analysis relative to control; format: functional
HEK293 [13] = assay: Induction of ROS generation in HEK293 cells at 2 uM incubated for 12 hrs by flow cytometric analysis relative to control; format: cell-based; details: human, hek293, 12 h
MOLT-4 [14] = assay: Cytotoxicity against human MOLT4 cells assessed as inhibition of cell proliferation after 48 hrs by MTT assay; format: functional, cell-based; details: MOLT-4, 48 h
Jurkat [15] = assay: Induction of apoptosis in human Jurkat cells assessed as total apoptotic cells at 2 uM measured after 24 hrs by Annexin V-APC/7-AAD staining based flow cytometric analysis relative to control; format: functional
Jurkat [16] = assay: Cell cycle arrest in human Jurkat cells assessed as increase in cell population at G0/G1 phase at 2 to 4 uM after 24 hrs by propidium iodide/RNase staining based flow cytometric analysis; format: functional; details: dose microM 2-4, time 24.0 hrs
Jurkat [17] = assay: Induction of apoptosis in human Jurkat cells assessed as total apoptotic cells at 4 uM measured after 24 hrs by Annexin V-APC/7-AAD staining based flow cytometric analysis relative to control; format: functional
MOLT-4 [18] = assay: Cell cycle arrest in human MOLT-4 cells assessed as increase in cell population at G0/G1 phase at 2 to 4 uM after 24 hrs by propidium iodide/RNase staining based flow cytometric analysis; format: functional; details: dose microM 2-4, time 24.0 hrs
Jurkat [19] = assay: Cell cycle arrest in human Jurkat cells assessed as decrease in cell population at S phase at 2 to 4 uM after 24 hrs by propidium iodide/RNase staining based flow cytometric analysis; format: functional; details: dose microM 2-4, time 24.0 hrs
Jurkat [20] = assay: Induction of apoptosis in human Jurkat cells assessed as Notch1 degradation at 2 to 4 uM after 24 hrs by Western blot analysis; format: functional, cell-based; details: dose microM 2-4, time 24.0 hrs
MOLT-4 [21] = assay: Induction of apoptosis in human MOLT-4 cells assessed as activation of PARP cleavage at 2 to 4 uM after 24 hrs by western blot analysis; format: functional, cell-based; details: dose microM 2-4, time 24.0 hrs
MOLT-4 [22] = assay: Induction of apoptosis in human MOLT-4 cells assessed as increase in cleaved caspase-3 levels at 4 uM after 24 hrs by Alexafluor-488 goat anti-rabbitIgG staining based flow cytometric analysis relative to control; format: functional
Jurkat [23] = assay: Induction of apoptosis in human Jurkat cells assessed as caspase 9 activation at 2 to 4 uM incubated for 24 hrs by Western blot analysis; format: functional, cell-based; details: dose microM 2-4, time 24.0 hrs
Jurkat [24] = assay: Cytotoxicity against human Jurkat cells assessed as inhibition of cell proliferation after 48 hrs by MTT assay; format: functional, cell-based
MOLT-4 [25] = assay: Induction of ROS generation in human MOLT-4 cells at 2 uM incubated for 12 hrs by flow cytometric analysis relative to control; format: functional
MOLT-4 [26] = assay: Induction of apoptosis in human MOLT-4 cells assessed as c-myc degradation at 2 to 4 uM after 24 hrs by Western blot analysis; format: functional, cell-based; details: dose microM 2-4, time 24.0 hrs
NB-4 = assay: Cytotoxicity against human NB4 cells assessed as inhibition of cell proliferation after 48 hrs by MTT assay; format: functional, cell-based; details: NB-4, 48 h
MOLT-4 [27] = assay: Induction of apoptosis in human MOLT-4 cells assessed as caspase 9 activation at 2 to 4 uM incubated for 24 hrs by Western blot analysis; format: functional, cell-based; details: dose microM 2-4, time 24.0 hrs
NALM-6 = assay: Cytotoxicity against human NALM6 cells assessed as inhibition of cell proliferation after 48 hrs by MTT assay; format: functional, cell-based; details: NALM-6, 48 h
MOLT-4 [28] = assay: Induction of apoptosis in human MOLT-4 cells assessed as decrease in Bcl-2 protein expression at 2 to 4 uM after 24 hrs by Western blot analysis; format: functional, cell-based; details: dose microM 2-4, time 24.0 hrs
MOLT-4 [29] = assay: Induction of apoptosis in human MOLT-4 cells assessed as total apoptotic cells at 2 uM measured after 24 hrs by Annexin V-APC/7-AAD staining based flow cytometric analysis relative to control; format: functional
MOLT-4 [30] = assay: Cell cycle arrest in human MOLT-4 cells assessed as decrease in cell population at S phase at 2 to 4 uM after 24 hrs by propidium iodide/RNase staining based flow cytometric analysis; format: functional; details: dose microM 2-4, time 24.0 hrs
Jurkat [31] = assay: Induction of apoptosis in human Jurkat cells assessed as activation of PARP cleavage at 2 to 4 uM after 24 hrs by western blot analysis; format: functional, cell-based; details: dose microM 2-4, time 24.0 hrs
CA46 = assay: Cytotoxicity against human CA46 cells assessed as inhibition of cell proliferation after 48 hrs by MTT assay; format: functional, cell-based; details: CA46, 48 h
Jurkat [32] = assay: Induction of apoptosis in human Jurkat cells assessed as c-myc degradation at 2 to 4 uM after 24 hrs by Western blot analysis; format: functional, cell-based; details: dose microM 2-4, time 24.0 hrs

Compound: O=C1c2ccccc2C(=O)c2c(OCc3ccc(CBr)cc3)ccc(OCc3ccc(CBr)cc3)c21
IC50 (HL-60): > 40000 nM
IC50 (K562): > 40000 nM
IC50 (HEK293 [1]): > 40000 nM

solubility [2]: 28200 µg/mL
Compound: CCCCCCCC[N+](C)(CCCCCCCC)Cc1ccc(COc2ccc(OCc3ccc(C[N+](CCO)(CCO)CCO)cc3)c3c2C(=O)c2ccccc2C3=O)cc1.[Br-].[Br-]
IC50 (HL-60): 7890 nM
IC50 (K562): 10900 nM
IC50 (HEK293 [1]): 9430 nM

Compound: COc1cccc2c1C(=O)c1c(O)c3c(c(O)c1C2=O)C[C@@](O)(C(=O)CO)C[C@@H]3O[C@H]1C[C@H](N)[C@H](O)[C@H](C)O1 [DOXORUBICIN HYDROCHLORIDE]
IC50 (HL-60): 140 nM
IC50 (K562): 630 nM
IC50 (HEK293 [1]): 370 nM

Activity (HEK293 [5]): 2.78%
Activity (HEK293 [13]): 62.23%
solubility [2]: < 10 µg/mL
Compound: CCCCCCCC[N+](C)(CCCCCCCC)Cc1ccc(COc2ccc(OCc3ccc(CBr)cc3)c3c2C(=O)c2ccccc2C3=O)cc1.[Br-]
Activity (MOLT-4 [3]): Active
Activity (Jurkat [4]): Dose-dependent effect
Activity (Jurkat [6]): 38.1%
Activity (Jurkat [7]): 43.4%
Activity (Jurkat [8]): Active
Activity (MOLT-4 [9]): 39.67%
Activity (MOLT-4 [10]): Dose-dependent effect
IC50 (HL-60): 1400 nM
Activity (MOLT-4 [11]): 22.2%
Activity (Jurkat [12]): 18.63%
IC50 (MOLT-4 [14]): 2610 nM
Activity (Jurkat [15]): 25.57%
IC50 (K562): 2310 nM
Activity (Jurkat [16]): Active
Activity (Jurkat [17]): 48.96%
Activity (MOLT-4 [18]): Active
Activity (Jurkat [19]): Active
Activity (Jurkat [20]): Dose-dependent effect
IC50 (HEK293 [1]): 2440 nM
Activity (MOLT-4 [21]): Active
Activity (MOLT-4 [22]): 33%
Activity (Jurkat [23]): Active
IC50 (Jurkat [24]): 2800 nM
Activity (MOLT-4 [25]): 73.97%
Activity (MOLT-4 [26]): Dose-dependent effect
IC50 (NB-4): 2400 nM
Activity (MOLT-4 [27]): Active
IC50 (NALM-6): 1240 nM
Activity (MOLT-4 [28]): Dose-dependent effect
Activity (MOLT-4 [29]): 22.76%
Activity (MOLT-4 [30]): Active
Activity (Jurkat [31]): Active
IC50 (CA46): 3510 nM
Activity (Jurkat [32]): Dose-dependent effect

Compound: CCCCCCCC[N+](C)(CCCCCCCC)Cc1cc(O)c2c(c1)C(=O)c1cccc(O)c1C2=O
IC50 (HL-60): 1110 nM
IC50 (K562): 2780 nM
IC50 (HEK293 [1]): 2200 nM

Compound: CCCCCCCC[N+](C)(CCCCCCCC)Cc1ccc(COc2ccc(OCc3ccc(C[N+](C)(CCCCCCCC)CCCCCCCC)cc3)c3c2C(=O)c2ccccc2C3=O)cc1
IC50 (HL-60): 3490 nM
IC50 (K562): 6780 nM
IC50 (HEK293 [1]): 2990 nM

Compound: CCCCCCCC[P+](CCCCCCCC)(CCCCCCCC)Cc1ccc(COc2ccc(OCc3ccc(CBr)cc3)c3c2C(=O)c2ccccc2C3=O)cc1
IC50 (HL-60): 900 nM
IC50 (K562): 1240 nM
IC50 (HEK293 [1]): 2170 nM

Compound: CCCCCCCC[P+](CCCCCCCC)(CCCCCCCC)Cc1ccc(COc2ccc(OCc3ccc(CSC(=N)N)cc3)c3c2C(=O)c2ccccc2C3=O)cc1
IC50 (HL-60): 5160 nM
IC50 (K562): 8040 nM
IC50 (HEK293 [1]): 6660 nM

Compound: CCCCCCCC[N+](C)(CCCCCCCC)Cc1cc(O)c2c(c1)Cc1cccc(O)c1C2=O
IC50 (HL-60): > 40000 nM
IC50 (K562): > 40000 nM
IC50 (HEK293 [1]): > 40000 nM

solubility [2]: 59.3 µg/mL
Compound: Br.Br.N=C(N)SCc1ccc(COc2ccc(OCc3ccc(CSC(=N)N)cc3)c3c2C(=O)c2ccccc2C3=O)cc1
IC50 (HL-60): 3350 nM
IC50 (K562): 1810 nM
IC50 (HEK293 [1]): 3190 nM

— ChEMBL document CHEMBL4665635, “Design and synthesis of various quinizarin derivatives as potential anticancer agents in acute T lymphoblastic leukemia” (Bioorg Med Chem, 2019)
